Measurements as given in paper PMC4483166, “Structural Basis of Specific Recognition of Non-Reducing Terminal N-Acetylglucosamine by an Agrocybe aegerita Lectin” (PLoS ONE, 2015).
Read-outs that look alike come from different tables or passages of the source.

Columns and labels:
[1] = target: T1, Agrocybe aegerita lectin 2 (AAL2) (Cyclocybe aegerita, UniProt H6CS64); experiment: crystal structure of the complex ([…] Å) and SPR steady-state affinity; assay type: binding
T1 construct: gene aal-2; recombinant AAL2 without any tag, expressed in E. coli BL21 (DE3); 407 amino acid residues
T1 sequence (H6CS64 1-407): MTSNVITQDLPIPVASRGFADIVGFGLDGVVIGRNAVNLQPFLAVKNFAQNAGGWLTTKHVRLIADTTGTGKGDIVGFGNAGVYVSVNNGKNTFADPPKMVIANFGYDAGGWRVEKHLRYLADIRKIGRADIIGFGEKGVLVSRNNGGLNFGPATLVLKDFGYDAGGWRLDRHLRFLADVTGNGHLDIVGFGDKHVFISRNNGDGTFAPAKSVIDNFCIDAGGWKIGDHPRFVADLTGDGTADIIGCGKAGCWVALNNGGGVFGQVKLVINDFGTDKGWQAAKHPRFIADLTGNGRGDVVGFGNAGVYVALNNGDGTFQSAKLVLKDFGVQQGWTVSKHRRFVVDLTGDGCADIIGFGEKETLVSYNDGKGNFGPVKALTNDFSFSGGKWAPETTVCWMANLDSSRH

[2] = target: T1, Agrocybe aegerita lectin 2 (AAL2); experiment: as above; assay type: binding; remark: listed apart in the source

Kd [1] | Kd [2] | SMILES
28.3 µM |  | CC(=O)N[C@@H]1[C@@H](O)[C@H](O)[C@@H](CO)O[C@H]1O [GlcNAc]
 | 41.7 µM | CC(=O)N[C@H]1[C@H](O[C@H]2[C@@H](O)[C@@H](CO)O[C@@H](O[C@H]3[C@H](O)[C@@H](NC(C)=O)C(O)O[C@@H]3CO)[C@@H]2O)O[C@H](CO)[C@@H](O)[C@@H]1O (some centres unmarked) [GlcNAcβ1-3Galβ1-4GlcNAc]
